According to article PMC12304293, “Combatting virulent gut bacteria by inhibiting the biosynthesis of a two-component lanthipeptide toxin” (Nature Communications, 2025):
Several values for one entry are separate records, joined by “and”; a condition that tells them apart may be missing. Equal values may be shown once. Non-standard residues stand in square brackets, D forms with d. Residues, ends and D or L forms follow the SMILES beside them. *: point of attachment. boroGlu = O=C(O)CC[C@H](N*)B(O)O; Gly(cPr) = N[C@H](C(=O)O)C1CC1

How the values were obtained:
[1] = test system: cylLL, cylLS, and cylA transcripts in C+ E. faecalis ATCC 29212; experiment: RT-qPCR of cylLL, cylLS and cylA transcripts; type: cell-based, Enterococcus faecalis
Protocol: Since the cytolysin BGC is often expressed in two transcripts because of the presence of a weak intergenic terminator between cylLL and cylM, primers and amplicons were selected for cylLL, cylLS and cylA[67].
The amounts of cylLL, cylLS, and cylA transcripts relative to the amount of 16S rRNA were determined by RT-qPCR. Amplicons and primers used to quantify cylLL, cylLS and 16S rRNA were identical to those previously reported. All primers are listed in Supplementary Table 3. Overnight cultures of E. faecalis ATCC 29212 were prepared as described in ‘Detection of CylLS” from extracts of E. faecalis’. Upon inoculation, samples were treated with 100 μM of 9 or vehicle. The samples were incubated at 37 °C for 20 h, then cells were collected by centrifugation (5000 g for 10 min). The supernatant was removed and the cells pellets were re-suspended in Lysis buffer (10 mM TrisHCl, 3 mg/mL lysozyme, pH = 7.8) at a concentration of 160 μL of Lysis buffer for 1 mL of overnight culture. The cells were incubated in Lysis buffer at room temperature for 15 min then RNA was extracted using a Monarch® Total RNA Miniprep Kit. Isolated RNA was immediately converted to cDNA using an iScript™ cDNA Synthesis Kit. cDNA was amplified using a SsoAdvanced Universal SYBR Green Supermix and a StepOnePlus Real-Time PCR System (Applied Biosystems). The expression level of each gene in each sample was determined by taking the difference between the CT of the amplification curve for the gene of interest (cylLL, cylLS or cylA) and the CT of the amplification curve for 16S rRNA, yielding ΔCT. ΔΔCT was determined by taking the difference between the ΔCT of the inhibitor treated sample and the ΔCT of the inhibitor-free control for each gene. Fold change in gene expression was calculature using Eq. (2)[76]. Four biological replicates were performed.2 Foldchangeingeneexpression=2^ΔΔCT

[2] = test system: C+ E. faecalis (FA2-2 (pAM714), ATCC 29212); experiment: Solution-phase hemolysis assay with C+ E. faecalis and rabbit erythrocytes; type: cell-based, Enterococcus faecalis
Excerpt: To test this hypothesis, a solution-phase hemolysis assay was developed, and this assay was used to monitor the effect of 9 on the hemolytic activity of several strains of E. faecalis (Fig. 8A). The cytolysin BGC is part of conjugative plasmid pAD1[64]. E. faecalis FA2-2 (-pAD1) lacks pAD1 and E. faecalis FA2-2 (pAM9055) is defective in cylA[27],[64]. Consistent with previous findings, both strains were not hemolytic (Fig. 8A).
A Treatment of an inoculum (OD600 = 0.35) of washed E. faecalis cells with 100 μM inhibitor 9 ( + 9), in the presence of washed rabbit erythrocytes. The hemolytic activity decreased relative to untreated controls (− 9). In total, four biological replicates (n = 4) for each condition were performed. Error bars represent the standard deviation and are centered at the mean. B Assessment of the ability of inhibitor 9 to block the hemolytic activity of live E. faecalis over a range of inhibitor concentrations under conditions described for (A). […] Errors in the EC50 are the errors calculated during the non-linear concatenate fit. C LCMS analysis of the concentration of CylLS” extracted from overnight cultures of C+ E. faecalis ATCC 29212 treated with 9 or vehicle. CylLS” extract concentrations were determined by comparison to an internal standard of ^15N,^13C-labeled CylLS”. Four biological replicates were performed (n = 4). Errors bars are centered at the mean and represent the standard of deviation. […] Four biological replicates were performed (n = 4). Error bars are centered at the mean and represent the standard of deviation. Statistical significance was calculated using a two sample and two sided t test for (A) and (C) and a one sample one sided t test for (D). **P < 0.01, ***P < 0.001. Source data are provided as a Source Data file.
Rabbit erythrocytes (Hemostat) were washed with cold, sterile PBS and diluted in BHI to a concentration of 1% v/v. A 3 mL overnight culture of E. faecalis was centrifuged (4000 × g, 10 min) and the pellet was resuspended in 7 mL of BHI and the suspension was centrifuged (4000 × g, 10 min). The pellet was resuspended in BHI to achieve an OD600 of 1.4 and 50 µL of this suspension was added to a well containing 50 µL of inhibitor (400 µM). The inhibitor and the E. faecalis were incubated at room temperature for 10 min before adding 100 µL of 1% v/v rabbit erythrocytes in BHI. The inhibitor-free control well contained the same concentration of bacteria and rabbit erythrocytes. The sterile negative control and sterile positive control contained 100 µL of BHI and 100 µL of 1% v/v rabbit erythrocytes. […] The plate was then placed on ice and centrifuged at 1000 × g for 10 min to pellet all the remaining cellular material. The supernatant was diluted 10-fold in PBS and the absorbance at 415 nm was measured. For each condition, four wells were prepared and analyzed.

[3] = 100 μM of 9, untreated control = 1.0

In the case of CC(=O)NCC(=O)N[C@@H](CC(=O)O)C(=O)N[C@H](C(=O)N[C@@H](CCC(N)=O)C(=O)N[C@@H](C)C(=O)N[C@@H](CCC(=O)O)B(O)O)C1CC1 [Compound 9] (Ac-GD[Gly(cPr)]QA-boroGlu), the “Fold Change, gene CylA (Figure 8D), replicates” value [1, 3] is reported as 0.01989 and 0.0236 and 0.00144 and 0.00137, the “Fold Change, gene CylLL (Figure 8D), replicates” value [1, 3] is reported as 0.00585 and 0.2177 and 0.1852 and the “Fold Change, gene CylLS (Figure 8D), replicates” value [1, 3] is reported as 0.2335 and 0.2124 and 0.00397 and 0.00605. For the same compound, the “reduction in cylA transcripts” value ([1]; 100 μM, vs untreated control) was 86 fold, the “reduction in cylLL transcripts” value ([1]; 100 μM, vs untreated control) was 9-10 fold and the “reduction in cylLS transcripts” value ([1]; 100 μM, vs untreated control) was 9-10 fold. The “hemolysis, absorbance at 415 nm (Figure 8A), replicates” value ([2]; ATCC29212 +9, 100 μM) was 0.1606 and 0.1785 and 0.1723 and 0.2311, the “hemolysis relative to untreated cells” value ([2]; C+ E. faecalis ATCC 29212, 100 μM, rabbit erythrocytes) was “significantly reduced” and the “hemolytic activity relative to untreated cells” value ([2]; E. faecalis FA2-2 (pAM714), 100 μM, rabbit erythrocytes) was “significantly reduced”. The “OD 415 nm (Figure 8B), trials 1 and 2” value ([2]; log(concentration of Inhibitor 9 (uM)) 1) was 0.3132 and 0.3077, the “OD 415 nm (Figure 8B), trials 1 and 2” value ([2]; log(concentration of Inhibitor 9 (uM)) 1.39794) was 0.3207 and 0.274 and the “OD 415 nm (Figure 8B), trials 1 and 2” value ([2]; log(concentration of Inhibitor 9 (uM)) 1.69897) was 0.2734 and 0.2373. For the same compound, the “OD 415 nm (Figure 8B), trials 1 and 2” value ([2]; log(concentration of Inhibitor 9 (uM)) 1.87506) was 0.2493 and 0.2138, the “OD 415 nm (Figure 8B), trials 1 and 2” value ([2]; log(concentration of Inhibitor 9 (uM)) 2) was 0.2161 and 0.1917 and the “OD 415 nm (Figure 8B), trials 1 and 2” value ([2]; log(concentration of Inhibitor 9 (uM)) 2.09691) was 0.2085 and 0.1864. The “OD 415 nm (Figure 8B), trials 1 and 2” value ([2]; log(concentration of Inhibitor 9 (uM)) 2.17609) was 0.1972 and 0.1808, the “OD 415 nm (Figure 8B), trials 1 and 2” value ([2]; log(concentration of Inhibitor 9 (uM)) 2.30103) was 0.2237 and 0.2008 and the “hemolysis, absorbance at 415 nm (Figure 8A), replicates” value ([2]; pAM714 +9, 100 μM) was 0.2309 and 0.2273 and 0.2512 and 0.1929.
